Eight molecules from patent US9732322B2, “Compositions for mesoderm derived ISL1+ multipotent cells (IMPs), epicardial progenitor cells (EPCs) and multipotent C56C cells (C56Cs) and methods of producing and using same” (UNIVERSITY OF GEORGIA RESEARCH FOUNDATION, INC., priority 2008, dated 2017) can be followed below.

Experiment [1] deals with Isl1+ IMP (Spl-m) cells. The experiment can be described thus: Stage 2 differentiation of Isl1+ IMPs/Spl-m to Wt1+ epicardial progenitor (PE-like) cells. Particulars: for Erk activation in Isl1+ Spl-m: immunoblot, phospho-Erk1,2. The format is cell-based, human. As for the experimental part:
hESC/hFib2-iPS4 hiPSCs grown in StemPro defined media/defined media were differentiated into IMPs (as described above and elsewhere). At day 4, IMP cell stage, the defined media was supplemented with BMP4 (50 ng/ml, range about 2-100 ng/ml, R&D Systems), Wnt3a (25 ng/ml, range about 1-100+ng/ml, R&D Systems) and all-trans retinoic acid (4 μM, range about 0.25-25 μM Sigma), media changed every 2 (1-4 days) days, for about 10-16 days (about 7-25 days) (FIG. 39). The expression of Wt-1, Tbx18, Raldh2 and Tcf21 (epicardin) were confirmed by Q-PCR (FIGS. 40, 42) and Wt-1 by immunofluorescence (FIG. 41). This method typically gives cultures that are >80% positive for Wt1.
(§1) WA01, WA07, WA09, BG01 and BG02 hESCs and Fib-iPS4 hIPSCs^28 were adapted from mouse embryo fibroblast feeder-based culture conditions to feeder-free growth in chemically defined media (CDM) using single cell suspensions^50. Briefly, CDM is composed of DMEM/F12 (Mediatech), 2% probumin (Bovine Serum Albumin fraction V) biotech grade (Millipore), 1× nonessential amino acids, 50 U/mL penicillin, 50 μg/mL streptomycin, 1× trace elements A, B, C (all from Mediatech), 10 μg/mL transferrin, 0.1 mM […] (Gibco), 50 μg/mL ascorbic acid (Sigma), 8 ng/mL bFGF (Invitrogen), 200 ng/mL LR-IGF (Sigma), 10 ng/mL Activin A (R and D Systems) and 10 ng/mL […] (Peprotech). Cells were passaged every 4-5 d using Accutase (Innovative Cell Technologies) to form a single cell suspension and then plated onto plates coated with 1:200 Geltrex (Invitrogen) at a cell density of 7.5×10^4 cells/cm^2 at 37° C. in 5% CO2. Media was changed every 24 h. To differentiate hESC in Stage 1 (FIG. 62), cells were plated at a density of 5.1×10^4 cells/cm^2 into CDM containing 25 ng/mL rmWnt3a and 100 ng/mL rhBMP4 (R&D Systems). Cells were cultured at 37° C. in 5% CO2 and media changed every 24 h for 4-6 d. CDM for Stage 2 of differentiation was supplemented with 25 ng/mL rmWnt3a, 50 ng/mL rhBMP4 with either 100 ng/ml Fgf2 or 4 μM all-trans retinoic acid (Sigma), changing media every 48 h for 10-16 d. For Stage 3 differentiation, Stage 2 cells were passaged at day 16 into CDM without Activin A, supplemented with 10 ng/mL rhVEGF-A165 (R&D Systems). All bright field images were acquired on a Leica DMIL microscope.
Progenitor cells of the coronary vasculature are believed to reside in the PE and after forming the epicardium, seed the myocardium for future vessel formation. Many unanswered questions remain as to the characteristics of these progenitor cells but clearly, a better understanding of PE development will provide significant insight into this question. Lineage tracing studies in vivo indicate that PE and epicardium forms from an Isl1^+ Nkx2.5^+ progenitor^6, 18, 29. […]
For orientation: In western blotting, separated proteins are transferred to a membrane and probed.

The subject of experiment [2] is hESC-derived Wt1+ PE cells (EPCs). The experiment can be described thus: Stage 3 differentiation of Wt1+ EPC/PE cells to smooth muscle and endothelial cells, immunostaining. The format is cell-based, human. The settings on record: VEGF 10 ng/ml, 10 days.
Description: WA01, WA07, WA09, BG01 and BG02 hESCs and Fib-iPS4 hIPSCs^28 were adapted from mouse embryo fibroblast feeder-based culture conditions to feeder-free growth in chemically defined media (CDM) using single cell suspensions^50. Briefly, CDM is composed of DMEM/F12 (Mediatech), 2% probumin (Bovine Serum Albumin fraction V) biotech grade (Millipore), 1× nonessential amino acids, 50 U/mL penicillin, 50 μg/mL streptomycin, 1× trace elements A, B, C (all from Mediatech), 10 μg/mL transferrin, 0.1 mM 3-mercaptoethanol (Gibco), 50 μg/mL ascorbic acid (Sigma), 8 ng/mL bFGF (Invitrogen), 200 ng/mL LR-IGF (Sigma), 10 ng/mL Activin A (R and D Systems) and 10 ng/mL Heregulin 13 (Peprotech). Cells were passaged every 4-5 d using Accutase (Innovative Cell Technologies) to form a single cell suspension and then plated onto plates coated with 1:200 Geltrex (Invitrogen) at a cell density of 7.5×10^4 cells/cm^2 at 37° C. in 5% CO2. Media was changed every 24 h. To differentiate hESC in Stage 1 (FIG. 62), cells were plated at a density of 5.1×10^4 cells/cm^2 into CDM containing 25 ng/mL rmWnt3a and 100 ng/mL rhBMP4 (R&D Systems). Cells were cultured at 37° C. in 5% CO2 and media changed every 24 h for 4-6 d. CDM for Stage 2 of differentiation was supplemented with 25 ng/mL rmWnt3a, 50 ng/mL rhBMP4 with either 100 ng/ml Fgf2 or 4 μM all-trans retinoic acid (Sigma), changing media every 48 h for 10-16 d. […]
The target of experiment [3] is T1, CXCR4 receptor (Homo sapiens, UniProt P61073).
T1 construct: endogenous in cells; host or cells: C56C cells (CXCR4+ CD56+), differentiated from MMCs derived from human pluripotent stem cells
Kind of experiment: Boyden chamber migration assay of C56C cells. The format is cell-based. As for the experimental part: FIG. 61. To investigate the mechanisms by which C56Cs migrate towards ischemic/damaged tissue we assayed these cells in a Boyden chamber assay. 300,000 C56C cells were seeded in the upper chamber of a Boyden chamber.
To investigate the mechanisms by which C56Cs migrate towards ischemic/damaged tissue we assayed these cells in a Boyden chamber assay. 300,000 C56C cells were seeded in the upper chamber of a Boyden chamber.

The test system of experiment [4] is WA09 hESCs. The experiment can be described thus: Stage 1 differentiation of WA09 hESCs to Isl1+ splanchnic mesoderm; Q-PCR, immunostaining, flow cytometry. The format is cell-based, human. The settings on record: for differentiation / gene expression changes with single factor alone: data not shown. Here is the method:
as §1, with “To differentiate hESC in Stage 1 (FIG. 62), cells were plated at a density of 5.1×10^4 cells/cm^2 into CDM containing 25 ng/mL rmWnt3a and 100 ng/mL rhBMP4 (R&D Systems).” left out
Cells were collected as single cell suspensions following harvesting with Accutase and then analyzed using a Cyan flow cytometer (Dako). Cells were blocked with species-specific serum for 30 min followed by blocking with CD16/32 (eBiosciences) for a further 15 min then, with specific antibodies shown in FIG. 81, Table 4. Immunofluorescence was performed on 4% paraformaldehyde-fixed cells in the presence of 10% donkey serum and 0.25% Triton X100 followed by visualization using 2.5% donkey serum in PBS with fluorescent conjugated secondary antibodies. DAPI (Sigma) was used to counterstain nuclei. […]
On the technique in general: In flow cytometry, cells or beads pass a laser one at a time.

Turning to `CC1=C(/C=C/C(C)=C/C=C/C(C)=C/C(=O)O)C(C)(C)CCC1` [RA, All-trans retinoic acid, reference compound], the “treated cells expressing Wt1, Raldh2 and Tbx20” value in experiment [1] (RA 4 μM with Wnt3a and BMP4, immunofluorescence) is “More than 90%”. The “Erk activation in Isl1+ Spl-m” value in experiment [1] is given as “activated Erk”. Take VEGF: in experiment [2], the “cells positive for CD31 and VE-cadherin (endothelial cells)” value is 10-20%; the “cells positive for SMA and calponin (smooth muscle cells)” value is reported as 80-90%. Regarding Fgf2: fibroblast growth factor 2, the “transcripts expressed in PE/epicardium (Wt1, Raldh2, Tbx18, Tbx5)” value in experiment [1] (Fgf2 100 ng/ml after 4 days of Wnt/BMP) is on record as “dramatic increases”. In addition, the “Erk activation in Isl1+ Spl-m” value in experiment [1] is “activated Erk”. Regarding `c1cc(CN2CCCNCCNCCCNCC2)ccc1CN1CCCNCCNCCCNCC1` [AMD3100], the “migration of C56C cells towards SDF1” value in experiment [3] (antagonist added) is recorded as “blocked”. On to SDF1: SDF1 cytokine, for which the “migration of C56C cells towards cytokine in lower chamber” value in experiment [3] (300,000 C56C cells in upper chamber) is “responsive and migrate towards”.

B1: Dkk1: Wnt antagonist Dkk1 (protein, UniProt O94907 32-266, looked up)
Dickkopf-related protein 1: TLNSVLNSNAIKNLPPPLGGAAGHPGSAVSAAPGILYPGGNKYQTIDNYQPYPCAEDEECGTDEYCASPTRGGDAGVQICLACRKRRKRCMRHAMCCPGNYCKNGICVSSDQNHFRGEIEETITESFGNDHSTLDGYSRRTTLSSKMYHTKGQEGSVCLRSSDCASGLCCARHFWSKICKPVLKEGQVCTKHRRKGSHGLEIFQRCYCGEGLSCRIQKDHHQASNSSRLHTCQRH
With B1, the “BMP4-dependent differentiation of hESCs without exogenous Wnt3a” value in experiment [4] (Dkk1 150 ng/ml with BMP4 50 ng/ml) is on record as “blocked”.

B2: Wnt3a: wingless (Wnt) protein (protein, UniProt P56704 19-352, looked up)
Protein Wnt-3a: SYPIWWSLAVGPQYSSLGSQPILCASIPGLVPKQLRFCRNYVEIMPSVAEGIKIGIQECQHQFRGRRWNCTTVHDSLAIFGPVLDKATRESAFVHAIASAGVAFAVTRSCAEGTAAICGCSSRHQGSPGKGWKWGGCSEDIEFGGMVSREFADARENRPDARSAMNRHNNEAGRQAIASHMHLKCKCHGLSGSCEVKTCWWSQPDFRAIGDFLKDKYDSASEMVVEKHRESRGWVETLRPRYTYFKVPTERDLVYYEASPNFCEPNPETGSFGTRDRTCNVSSHGIDGCDLLCCGRGHNARAERRREKCRCVFHWCCYVSCQECTRVYDVHTCK
In the case of B2, in experiment [4], the “differentiation / gene expression changes with single factor alone” value is reported as “None of the gene expression changes”.

B3: BMP4: bone morphogenic protein 4 (protein, UniProt P12644 293-408, looked up)
Bone morphogenetic protein 4: SPKHHSQRARKKNKNCRRHSLYVDFSDVGWNDWIVAPPGYQAFYCHGDCPFPLADHLNSTNHAIVQTLVNSVNSSIPKACCVPTELSAISMLYLDEYDKVVLKNYQEMVVEGCGCR
As for B3, in experiment [4], the “differentiation / gene expression changes with single factor alone” value is “promoted differentiation”.
